Data published in US20260256133A1, “AN EMULSIFIABLE CONCENTRATE HAVING A (SUBSTITUTED) BENZALDEHYDE-BASED SOLVENT SYSTEM” (BASF SE, priority 2022, published 2026).

What was measured:
Soya plants = assay: Phytotoxicity determination on soya; type: in vivo; settings: 200 L/ha of 1% w/w emulsion (EC 90% w/w solvent, 10% w/w emulsifier), after 14 days
Protocol: Soya plants grown under standard greenhouse conditions in the growth stage 13 were treated with aqueous emulsions in a spray cabin. The resulting plant spray dosage represented an application rate of 200 L/ha of 1% w/w emulsion, corresponding to the application of 2 L/ha of the emulsifiable concentrate. […] The experimental period lasted 14 days, during which time the Soya plants were given optimum watering, nutrients, and light.
An assessment of 1 to 10% phytotoxicity is the limit of acceptable plant damage by farmers.

[1] = Water solubility of the solvent (method based on CIPAC MT157.1 and OECD 105); type: physicochemical; settings: solvent in water, visual assessment of undissolved solvent
Protocol: The water solubility of the solvent was determined according to a method based on CIPAC MT157.1 and OECD 105 via the visual assessment of undissolved solvent in water after vigorous mixing and standing. Herein, various amounts of solvent and water were mixed with vigorous shaking in a glass-stoppered graduated cylinder or separating funnel, followed by standing for at least 30 min to enable separation. […] This method can be repeated with various amounts of solvent and water to enable the determination of the water-solubility of the solvent.

Compound | phytotoxicity (visual, scale 0% to 100%) (Soya plants) | water solubility [1]
COc1ccc(C=O)cc1 [4-anisaldehyde] | 0% | 0.20 % w/w
CCCCC(CC)COC(=O)C(C)O (stereo not shown) [2-Ethyl hexyl lactate, 2-Ethylhexyl Lactate] | 30% | –
CCCCCCCCCC(=O)N(C)C [Dimethyl decanamide, dimethyl decanamide] | 50% | –
